# Test results taken from PMC10683025, “Discovery of a Hydroxylamine-Based Brain-Penetrant EGFR Inhibitor for Metastatic Non-Small-Cell Lung Cancer” (Journal of Medicinal Chemistry, 2023).
# Key:
# AMPK-alpha2 = biological target: T1, AMPK-alpha2 (Homo sapiens, UniProt P54646); assay: KINOMEScan; type: binding; conditions: AMPK-alpha2, 1 µM; read-out: Percent Control
# T1 construct: purchased Eurofins DiscoverX (KINOMEscan)
# Excerpt: (§3) Percent control was mapped onto the kinome tree using TREEspot.
# WNK4 = biological target: T2, WNK4 (Homo sapiens, UniProt Q96J92); assay: KINOMEScan; type: binding; conditions: WNK4, 1 µM; read-out: Percent Control
# T2 construct: purchased Eurofins DiscoverX (KINOMEScan service)
# Excerpt: as §3
# YANK3 = biological target: T3, YANK3 (Homo sapiens, UniProt Q86UX6); assay: KINOMEScan; type: binding; conditions: YANK3, 1 µM; read-out: Percent Control
# T3 construct: purchased Eurofins DiscoverX (KINOMEScan service)
# [1] = biological target: T4, ABL1(H396P)-phosphorylated (Homo sapiens, UniProt P00519, H396P); assay: KINOMEScan; type: binding; conditions: read-out: Percent Control
# T4 construct: purchased Eurofins DiscoverX
# Excerpt: as §3
# WNK2 = biological target: T5, WNK2 (Homo sapiens, UniProt Q9Y3S1); assay: KINOMEScan; type: binding; conditions: WNK2, 1 µM; read-out: Percent Control
# T5 construct: purchased Eurofins DiscoverX
# Excerpt: as §3
# [2] = test system: NCI-H1975 (EGFR mutation = L858R/T790M); assay: CellTiter-Glo cell viability assay; type: cell-based, human; conditions: Homo sapiens, NCI-H1975; 72 h, unadjusted for FBS
# Experimental: (§1) The A431, HCC827, SK-BR-3, ZR-75–30, AU565, and Caco-2 cell lines were obtained from ATCC. The NCI-H1975 cell line was obtained from SIBS. The NCI-H3255 cell line was obtained from CoBioer. Engineered Ba/F3 cell lines were obtained from Crown Bioscience. MCKII-MDR1 cells were obtained from The Netherlands Cancer Institute. HEK293 cells were obtained from Invitrogen. A431 cells were cultured in DMEM (Life Technologies) with 10% FBS. HCC827, NCI-H1975, and AU565 cells were cultured in RPMI1640 (Invitrogen) with 10% FBS. NCI-H3255 cells were cultured in BEGM (Lonza) with 10% FBS. Ba/F3 EGFR-del E746_A750/C797S and Ba/F3 EGFR-L858R/C797S cells were cultured in RPMI (Invitrogen) with 10% FBS. SK-BR-3 cells were cultured in McCoy’s 5a (Invitrogen) with 10% FBS. ZR-75-30 cells were cultured in RPMI1640 (Invitrogen) with 20% FBS. Caco-2 and MCKII-MDR1 culture information is given in the Permeability Studies section. HEK293 cells were cultured in DMEM (Gibco) with 10% FBS, 0.1 mM NEAA, 25 mM HEPES, 100 U/mL penicillin-streptomycin, μg/mL blasticidin, and 400 μg/mL Geneticin. All cells were cultured in a humidified incubator with 5% CO2 at 37 °C.
# (§2) Viability assays using A431, HCC827, NCI-H1975, NCI-H3255, Ba/F3 EGFR-del E746_A750/C797S, Ba/F3 EGFR-L858R/C797S, AU565, SK-BR-3, and ZR-75-30 cells were performed at Crown BioScience. Cells were plated into 96-well plates at 1500–7000 cells per well and dosed in triplicate (n = 3) in a nine-point, 4-fold dilution series with compounds (0.15 nM to 10 μM) in DMSO and incubated for 72 h. After 72 h, cell viability was assayed by CellTiter-Glo Luminescent Viability Assay (Promega). Dose–response curves were generated and used to calculate the IC50 values which were calculated on GraphPad Prism from the nonlinear regression equation fitted with a sigmoidal dose response and are presented as mean ± SEM.
# [3] = test system: SK-BR-3 (HER2-positive breast cancer); assay: CellTiter-Glo cell viability assay; type: cell-based, human; conditions: Homo sapiens, SK-BR-3; 72 h, unadjusted for FBS
# Experimental: as §1, §2
# [4] = test system: ZR-75-30 (HER2-positive breast cancer); assay: CellTiter-Glo cell viability assay; type: cell-based, human; conditions: Homo sapiens, ZR-75-30; 72 h, unadjusted for FBS
# Experimental: as §1, §2
# [5] = test system: AU565 (HER2-positive breast cancer); assay: CellTiter-Glo cell viability assay; type: cell-based, human; conditions: Homo sapiens, AU565; 72 h, unadjusted for FBS
# Experimental: as §1, §2
# [6] = test system: A431 cell line (overexpressed EGFRwt); assay: CellTiter-Glo cell viability assay; type: cell-based, human; conditions: Homo sapiens, A-431; 72 h, unadjusted for FBS
# Experimental: as §1, §2
# ACVRL1 = biological target: T6, ACVRL1 (Homo sapiens, UniProt P37023); assay: KINOMEScan; type: binding; conditions: ACVRL1, 1 µM; read-out: Percent Control
# T6 construct: purchased Eurofins DiscoverX (KINOMEscan)
# T6 sequence (P37023 22-503): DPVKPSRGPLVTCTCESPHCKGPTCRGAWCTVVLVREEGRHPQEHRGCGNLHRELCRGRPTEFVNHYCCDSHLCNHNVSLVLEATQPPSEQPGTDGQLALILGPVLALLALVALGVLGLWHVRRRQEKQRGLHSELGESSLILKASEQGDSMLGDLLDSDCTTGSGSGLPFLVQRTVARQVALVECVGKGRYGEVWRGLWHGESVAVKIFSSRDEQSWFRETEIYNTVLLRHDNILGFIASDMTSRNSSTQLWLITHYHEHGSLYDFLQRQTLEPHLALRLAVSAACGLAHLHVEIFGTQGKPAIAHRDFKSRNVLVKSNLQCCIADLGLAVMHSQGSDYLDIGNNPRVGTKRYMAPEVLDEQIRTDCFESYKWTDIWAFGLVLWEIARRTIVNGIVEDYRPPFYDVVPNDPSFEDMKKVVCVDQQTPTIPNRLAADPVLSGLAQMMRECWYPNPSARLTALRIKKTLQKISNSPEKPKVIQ
# Excerpt: as §3
# T2 sequence (Q96J92 whole entry): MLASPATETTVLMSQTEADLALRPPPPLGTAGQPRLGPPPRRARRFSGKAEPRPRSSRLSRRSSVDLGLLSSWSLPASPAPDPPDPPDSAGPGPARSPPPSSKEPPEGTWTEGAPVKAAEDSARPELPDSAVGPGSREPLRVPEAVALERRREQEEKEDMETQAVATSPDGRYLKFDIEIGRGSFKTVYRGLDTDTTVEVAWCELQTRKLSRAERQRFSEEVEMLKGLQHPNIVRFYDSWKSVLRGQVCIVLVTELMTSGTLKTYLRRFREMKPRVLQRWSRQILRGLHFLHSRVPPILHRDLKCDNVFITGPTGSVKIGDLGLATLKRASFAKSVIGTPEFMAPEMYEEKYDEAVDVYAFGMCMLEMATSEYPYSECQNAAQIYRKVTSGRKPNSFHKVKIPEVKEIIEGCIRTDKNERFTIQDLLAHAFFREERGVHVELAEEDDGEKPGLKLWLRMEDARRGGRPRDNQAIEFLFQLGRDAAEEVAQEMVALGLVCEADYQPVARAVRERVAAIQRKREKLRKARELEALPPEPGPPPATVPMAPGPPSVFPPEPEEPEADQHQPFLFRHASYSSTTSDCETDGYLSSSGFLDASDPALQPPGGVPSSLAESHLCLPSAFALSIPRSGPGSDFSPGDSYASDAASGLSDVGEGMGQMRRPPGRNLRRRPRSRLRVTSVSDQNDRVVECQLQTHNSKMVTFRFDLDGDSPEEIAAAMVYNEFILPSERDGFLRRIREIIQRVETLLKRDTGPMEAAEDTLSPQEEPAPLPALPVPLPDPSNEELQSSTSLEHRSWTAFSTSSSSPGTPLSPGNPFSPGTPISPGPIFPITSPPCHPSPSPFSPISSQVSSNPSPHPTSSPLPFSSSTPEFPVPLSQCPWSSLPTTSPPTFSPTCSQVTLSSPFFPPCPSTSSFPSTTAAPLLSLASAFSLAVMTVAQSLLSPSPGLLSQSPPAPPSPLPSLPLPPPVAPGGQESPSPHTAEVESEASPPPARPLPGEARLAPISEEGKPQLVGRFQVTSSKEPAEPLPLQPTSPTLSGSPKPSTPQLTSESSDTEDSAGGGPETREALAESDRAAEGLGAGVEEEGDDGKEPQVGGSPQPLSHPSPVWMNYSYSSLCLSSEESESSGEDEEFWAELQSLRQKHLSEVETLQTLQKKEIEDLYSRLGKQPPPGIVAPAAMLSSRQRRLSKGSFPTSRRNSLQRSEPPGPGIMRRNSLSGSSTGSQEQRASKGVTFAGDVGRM
# T1 sequence (P54646 whole entry): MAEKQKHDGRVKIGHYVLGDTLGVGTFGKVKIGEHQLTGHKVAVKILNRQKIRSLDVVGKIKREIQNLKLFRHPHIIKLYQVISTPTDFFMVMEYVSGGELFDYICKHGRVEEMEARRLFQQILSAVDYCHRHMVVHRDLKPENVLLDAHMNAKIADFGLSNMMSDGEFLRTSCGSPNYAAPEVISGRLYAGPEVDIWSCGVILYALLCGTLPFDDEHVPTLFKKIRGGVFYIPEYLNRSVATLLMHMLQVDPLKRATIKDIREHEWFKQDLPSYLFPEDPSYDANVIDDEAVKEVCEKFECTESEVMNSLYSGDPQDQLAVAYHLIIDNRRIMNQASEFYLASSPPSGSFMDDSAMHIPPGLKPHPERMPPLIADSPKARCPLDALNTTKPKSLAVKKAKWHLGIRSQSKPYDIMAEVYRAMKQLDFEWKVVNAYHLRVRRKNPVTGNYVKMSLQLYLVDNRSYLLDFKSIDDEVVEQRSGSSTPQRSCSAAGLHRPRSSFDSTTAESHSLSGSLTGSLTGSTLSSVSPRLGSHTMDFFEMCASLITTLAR
# T5 sequence (Q9Y3S1 whole entry): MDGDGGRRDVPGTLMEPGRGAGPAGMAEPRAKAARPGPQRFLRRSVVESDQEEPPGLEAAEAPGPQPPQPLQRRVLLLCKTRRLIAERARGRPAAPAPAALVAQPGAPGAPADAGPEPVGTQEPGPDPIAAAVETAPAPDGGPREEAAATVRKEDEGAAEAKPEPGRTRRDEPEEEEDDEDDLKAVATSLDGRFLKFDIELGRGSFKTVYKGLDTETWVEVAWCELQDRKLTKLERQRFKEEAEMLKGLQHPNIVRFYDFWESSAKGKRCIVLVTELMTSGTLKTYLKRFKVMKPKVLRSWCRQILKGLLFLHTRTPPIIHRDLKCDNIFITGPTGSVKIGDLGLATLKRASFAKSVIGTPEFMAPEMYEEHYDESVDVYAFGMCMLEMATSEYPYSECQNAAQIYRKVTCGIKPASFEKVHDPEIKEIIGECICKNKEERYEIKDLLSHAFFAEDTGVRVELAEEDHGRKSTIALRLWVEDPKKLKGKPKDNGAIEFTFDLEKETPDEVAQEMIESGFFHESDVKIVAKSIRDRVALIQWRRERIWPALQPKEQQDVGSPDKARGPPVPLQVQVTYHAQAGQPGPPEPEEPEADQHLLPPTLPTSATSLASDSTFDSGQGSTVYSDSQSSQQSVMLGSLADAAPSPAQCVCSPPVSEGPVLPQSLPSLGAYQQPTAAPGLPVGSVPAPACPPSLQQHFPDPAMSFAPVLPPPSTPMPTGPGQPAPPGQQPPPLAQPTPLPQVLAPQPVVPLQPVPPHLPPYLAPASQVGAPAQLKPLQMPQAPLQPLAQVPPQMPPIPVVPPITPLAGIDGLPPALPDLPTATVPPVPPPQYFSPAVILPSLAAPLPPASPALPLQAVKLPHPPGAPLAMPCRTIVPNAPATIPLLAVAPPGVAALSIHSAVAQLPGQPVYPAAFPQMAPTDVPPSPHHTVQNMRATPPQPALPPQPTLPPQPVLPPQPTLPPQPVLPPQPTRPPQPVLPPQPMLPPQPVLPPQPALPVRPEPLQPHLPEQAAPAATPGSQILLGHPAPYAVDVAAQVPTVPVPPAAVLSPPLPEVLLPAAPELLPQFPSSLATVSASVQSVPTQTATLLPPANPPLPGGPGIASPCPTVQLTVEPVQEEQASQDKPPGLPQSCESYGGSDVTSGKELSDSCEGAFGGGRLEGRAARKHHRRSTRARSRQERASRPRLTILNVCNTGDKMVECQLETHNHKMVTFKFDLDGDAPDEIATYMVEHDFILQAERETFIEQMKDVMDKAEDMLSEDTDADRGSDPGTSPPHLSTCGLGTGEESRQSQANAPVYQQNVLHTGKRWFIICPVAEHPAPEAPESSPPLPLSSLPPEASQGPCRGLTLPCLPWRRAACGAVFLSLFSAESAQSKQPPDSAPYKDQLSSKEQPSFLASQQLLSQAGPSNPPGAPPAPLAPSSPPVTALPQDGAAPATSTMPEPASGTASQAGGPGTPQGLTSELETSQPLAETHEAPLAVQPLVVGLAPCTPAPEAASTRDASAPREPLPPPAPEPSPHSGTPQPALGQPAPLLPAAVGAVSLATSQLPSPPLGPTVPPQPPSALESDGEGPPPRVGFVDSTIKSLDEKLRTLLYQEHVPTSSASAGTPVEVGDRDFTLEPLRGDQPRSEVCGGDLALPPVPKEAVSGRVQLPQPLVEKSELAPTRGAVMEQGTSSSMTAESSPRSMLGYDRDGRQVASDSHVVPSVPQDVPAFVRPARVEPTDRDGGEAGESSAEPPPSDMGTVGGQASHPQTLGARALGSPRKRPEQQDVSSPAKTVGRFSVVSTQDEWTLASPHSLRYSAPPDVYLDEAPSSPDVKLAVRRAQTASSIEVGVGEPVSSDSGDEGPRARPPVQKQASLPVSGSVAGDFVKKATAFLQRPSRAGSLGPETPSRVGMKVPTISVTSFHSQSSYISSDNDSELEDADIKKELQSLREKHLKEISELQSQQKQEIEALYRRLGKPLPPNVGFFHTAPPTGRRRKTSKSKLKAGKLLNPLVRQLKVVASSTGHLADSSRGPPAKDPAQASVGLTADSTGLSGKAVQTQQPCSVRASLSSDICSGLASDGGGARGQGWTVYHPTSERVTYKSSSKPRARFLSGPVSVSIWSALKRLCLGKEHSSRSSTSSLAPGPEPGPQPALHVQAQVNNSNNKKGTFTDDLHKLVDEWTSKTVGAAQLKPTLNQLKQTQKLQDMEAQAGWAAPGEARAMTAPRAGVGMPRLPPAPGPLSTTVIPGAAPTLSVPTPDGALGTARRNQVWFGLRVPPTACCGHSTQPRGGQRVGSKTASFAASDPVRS
# T3 sequence (Q86UX6 whole entry): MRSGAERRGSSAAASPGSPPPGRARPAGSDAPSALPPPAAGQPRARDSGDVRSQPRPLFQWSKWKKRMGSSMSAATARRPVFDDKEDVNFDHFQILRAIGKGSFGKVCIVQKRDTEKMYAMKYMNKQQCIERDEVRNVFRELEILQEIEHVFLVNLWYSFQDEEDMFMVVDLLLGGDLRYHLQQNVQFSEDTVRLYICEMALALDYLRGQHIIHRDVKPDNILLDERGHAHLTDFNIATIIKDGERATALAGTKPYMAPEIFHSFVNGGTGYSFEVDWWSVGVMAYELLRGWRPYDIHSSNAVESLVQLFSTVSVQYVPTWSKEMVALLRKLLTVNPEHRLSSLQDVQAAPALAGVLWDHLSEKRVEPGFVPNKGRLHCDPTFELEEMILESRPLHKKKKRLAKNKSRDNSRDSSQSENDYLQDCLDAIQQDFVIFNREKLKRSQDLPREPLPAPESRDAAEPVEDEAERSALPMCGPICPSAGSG
smiles,measurement,setting,value
"COc1cc2ncnc(Nc3cccc(Cl)c3F)c2cc1OCCON1CCN(C)CC1 [Compound 9, N-(3-Chloro-2-fluorophenyl)-7-methoxy-6-(2-((4-methylpiperazin-1-yl)oxy)ethoxy)quinazolin-4-amine]",remaining binding at 1 µM,AMPK-alpha2,97%
same,remaining binding at 1 µM,WNK4,95%
same,remaining binding at 1 µM,YANK3,86%
same,remaining binding at 1 µM,[1],6.6%
same,remaining binding at 1 µM,WNK2,94%
same,IC50,[2],> 10000 nM
same,IC50,[3],1510 nM
same,IC50,[4],1630 nM
same,IC50,[5],986 ± 138 nM
same,IC50,[6],83 nM
same,remaining binding at 1 µM,ACVRL1,100%
